Laboratory results reported in article PMC7071032, “In Vitro Inhibition of Hsp90 Protein by Benzothiazoloquinazolinequinones Is Enhanced in The Presence of Ascorbate. A Preliminary In Vivo Antiproliferative Study” (Molecules, 2020).
Read-outs that look alike come from different tables or passages of the source.

Columns and labels:
[1] = system: panel of cancer cells (T24, DU-145, MCF-7); test: MTT reduction assay, panel of cancer cells (means, ranges, selectivity index); assay type: cell-based, human; settings: for IC50: Homo sapiens
Procedure: (§1) As positive control, two well-known anticancer drugs, namely TAM and 5-FU, were also tested on these cell lines. […] Regarding 5-FU, it is a broad-spectrum chemotherapeutic drug used to treat a variety of malignancies. Particularly, it has a long history of use against bladder tumors.
Such a selective index was calculated as the ratio between IC50 values of healthy cells/IC50 values in cancer cells.
(§2) Cells were seeded into 96-well plates at a density of 10,000 cells/well for 24 h and then incubated for 48 h with or without the quinone derivatives. […] The IC50 values were determined using the GraphPad Prism software (San Diego, CA, USA). Further incubation procedures and optical density reading of colored solutions were performed according to Benites et al..

[2] = system: poly(ADPribose)polymerase (PARP); test: Immunoblot of PARP protein integrity in T24 cells; assay type: cell-based, human; settings: 5 µM, 4 h, regardless of the presence of ascorbate (1 mM)
Procedure: Figure 1 Effects of selected quinones of Hsp90 (A) and poly(ADPribose)polymerase (PARP) (B) protein integrity in T24 cells. […] Ctl represents control untreated cells. * p < 0.05 as compared to control conditions. […] This was the case regardless of the presence of ascorbate (1 mM). The obtained results make a potential role of apoptosis unlikely to be the underlying mechanism of cell impairment induced by quinones, including menadione. Indeed, PARP is a substrate of caspase-3, therefore, when an apoptosis process is triggered, it is expected that PARP protein will be cleaved yielding a second protein band also recognized by the anti-PARP antibody. Cancer cells were incubated for 4 h in the absence and in the presence of compounds. Afterward, cells were washed twice with ice-cold PBS and then resuspended in RIPA lysis buffer supplemented with 1% protease inhibitor cocktail (Sigma–Aldrich, St. Louis, MO, USA) and 3% phosphatase inhibitor cocktail (Calbiochem, Darmstadt, Germany). Treatment of samples and electrophoresis conditions were conducted as previously reported. Mouse monoclonal primary antibodies against hsp90α/β C-terminus (F8), and against β-actin (clone AC-15), were purchased from Santa Cruz Biotechnology (Santa Cruz, CA, USA) and from Abcam (Cambridge, UK), respectively. Rabbit polyclonal antibodies against PARP were purchased from BD Biosciences (San Diego, CA, USA). […]

Hsp90 [3] = test: Immunoblot of Hsp90 protein integrity in T24 cells; assay type: cell-based, human; settings: 5 µM quinone plus 1 mM ascorbate, 4 h
Procedure: Nevertheless, when incubation was done in the presence of 1 mM ascorbate (vitamin C) plus quinones (including menadione), a new peptide fragment of about 70 kD was detected by the antibody against Hsp90.
Figure 1 Effects of selected quinones of Hsp90 (A) and poly(ADPribose)polymerase (PARP) (B) protein integrity in T24 cells. Cancer cells were incubated for 4 h with 5 µM menadione (K3), 15, 16, 19, or 20 either in the absence or in the presence of 1 mM ascorbate (Asc). Ctl represents control untreated cells. * p < 0.05 as compared to control conditions.
Cancer cells were incubated for 4 h in the absence and in the presence of compounds. Afterward, cells were washed twice with ice-cold PBS and then resuspended in RIPA lysis buffer supplemented with 1% protease inhibitor cocktail (Sigma–Aldrich, St. Louis, MO, USA) and 3% phosphatase inhibitor cocktail (Calbiochem, Darmstadt, Germany). Treatment of samples and electrophoresis conditions were conducted as previously reported. Mouse monoclonal primary antibodies against hsp90α/β C-terminus (F8), and against β-actin (clone AC-15), were purchased from Santa Cruz Biotechnology (Santa Cruz, CA, USA) and from Abcam (Cambridge, UK), respectively. Rabbit polyclonal antibodies against PARP were purchased from BD Biosciences (San Diego, CA, USA). […]

Hsp90 [4] = test: Immunoblot of Hsp90 protein integrity in TLT cells; assay type: cell-based, murine; settings: 5 µM plus 1 mM ascorbate, 4 h
Procedure: Cancer cells were incubated for 4 h with 5 µM menadione (K3) or 15 either in the absence or in the presence of 1 mM ascorbate (Asc). Ctl represents control untreated cells. * p < 0.05 as compared to control conditions. Cancer cells were incubated for 4 h in the absence and in the presence of compounds. Afterward, cells were washed twice with ice-cold PBS and then resuspended in RIPA lysis buffer supplemented with 1% protease inhibitor cocktail (Sigma–Aldrich, St. Louis, MO, USA) and 3% phosphatase inhibitor cocktail (Calbiochem, Darmstadt, Germany). Treatment of samples and electrophoresis conditions were conducted as previously reported. Mouse monoclonal primary antibodies against hsp90α/β C-terminus (F8), and against β-actin (clone AC-15), were purchased from Santa Cruz Biotechnology (Santa Cruz, CA, USA) and from Abcam (Cambridge, UK), respectively. Rabbit polyclonal antibodies against PARP were purchased from BD Biosciences (San Diego, CA, USA). Goat anti-rabbit antibody and rabbit anti-mouse polyclonal antibody were purchased respectively from Chemicon International (Temecula, CA, USA) and DakoCytomation (Glostrup, Denmark).

MCF-7 (breast) cells = system: MCF-7 (breast) cells; design: method as in doi:10.1016/j.tetlet.2015.07.034; settings: MTT, data from Valderrama et al. ref 16, read-out: IC50 ± SEM MCF-7; cited from earlier work
[5] = system: non-tumor fibroblasts AG 1523; test: MTT reduction assay, non-tumor fibroblasts; assay type: cell-based; settings: Homo sapiens, AG1523, 48 h incubation, read-out: IC50 ± SEM AG 1523
Procedure: as §1
Cell culture conditions were the same as reported elsewhere. Briefly, cell lines were kept in DMEM containing 10% fetal calf serum. In addition, 100 U/mL of penicillin and 100 µg/mL streptomycin from Gibco (Grand Island, NY, USA) were further added. Cell cultures were kept at 37 °C under an atmosphere of 95% air/5% CO2 and 100% humidity. Sodium L-ascorbate, menadione (vitamin K3), TAM, and 5-FU were purchased from Sigma (St. Louis, MO, USA).
The cytotoxicity of the quinones was assessed by following the reduction of MTT (3-(4,5-dimethylthiazol-2-yl)-2,5-diphenyltetrazolium bromide) to formazan blue and the capability of cancer cells to proliferate, namely a clonogenic assay.
as §2

## Cc1ccc2c(c1)SC1=NC3=C(C(=O)c4ccccc4C3=O)C(C)(O)N12 (centres unmarked) [Compound 15]
[1]; read-out: IC50 values on the panel of cancer cells (range over cell lines)
  IC50: 0.11 to 1.77 µM
[1]; read-out: mean IC50 value calculated from the individual IC50 values of the three cancer cell lines
  IC50: 1.1 to 1.61 µM
[1]; IC50 values of fibroblasts (AG 1523)/IC50 values of tumor cells (T24, DU-145, MCF-7)
  MSI: mean selective index: 29.4
[2]
  PARP cleavage: no effect on PARP protein integrity
Hsp90 [3]
  Hsp90 protein cleavage: induced an oxidative cleavage of Hsp90
Hsp90 [4]
  Hsp90 protein cleavage: oxidative cleavage of Hsp90
MCF-7 (breast) cells
  IC50: 2.98 ± 0.52 µM
[5]
  IC50: 32.3 ± 3.31 µM
